The numbers were not newly measured in PMC9795544, “Identifying Novel Inhibitors for Hepatic Organic Anion Transporting Polypeptides by Machine Learning-Based Virtual Screening” (Journal of Chemical Information and Modeling, 2022), which cites them from elsewhere.

For one data set, the system named is OATP1B1. Also noted: method as in earlier work. The settings on record: ref 1 (Karlgren et al.); cited from earlier work.
The subject of data set [1] is OATP2B1. Further details: method as in earlier work. The following applies: ref 1 (Karlgren et al.); cited from earlier work.
The test system of data set [2] is OATP2B1. Also noted: method as in PMID 33932771. The settings on record: highest affinity inhibitor reported in the literature; cited from earlier work.

Structures are written as SMILES. Like-named read-outs stand apart in the source and are kept apart here.

What is called IC50 is the concentration that inhibits the measured activity by half. In the case of `CC[C@H](C)C(=O)O[C@H]1C[C@H](O)C=C2C=C[C@H](C)[C@H](CC[C@@H](O)C[C@@H](O)CC(=O)O)[C@H]21` [pravastatin], the IC50 in the data set on OATP1B1 was 3600 nM.

For `C#Cc1cccc(Nc2ncnc3cc(OCCOC)c(OCCOC)cc23)c1` [erlotinib], in the data set on OATP2B1 [1], the IC50 is 550 nM. In the case of `C[C@]12CC[C@@H]3c4cc(P(=O)(O)O)ccc4CC[C@H]3[C@@H]1CCC2=O` [estra-1,3,5(10)-trien-17-on-2-ylphosphonate], in the data set with OATP2B1 [2], the IC50 is 41 nM.
